Test results from the NIST ThermoML archive (doi:10.1016/j.jct.2018.05.004).

Test: mn = molality of the nth substance listed, in mol/kg
Conditions: 100 kPa, Liquid; for speed of sound: Frequency=3 MHz, Single path-length method; for mass density: Vibrating tube method

O=C([O-])CC(O)(CC(=O)[O-])C(=O)[O-].[Li+].[Li+].[Li+] [trilithium citrate] + O
Conditions	mass density, 288.15 K [kg/m3]	mass density, 298.15 K [kg/m3]	mass density, 308.15 K [kg/m3]	mass density, 318.15 K [kg/m3]	speed of sound, 288.15 K [m/s]	speed of sound, 298.15 K [m/s]	speed of sound, 308.15 K [m/s]	speed of sound, 318.15 K [m/s]
m1 = 0.2	1027.21	1025.32	1021.67	1017.79	1509.2	1535.8	1556	1570.2
m1 = 0.4	1052.75	1050.41	1046.92	1042.96	1548	1572.6	1590.3	1602.4
m1 = 0.6	1078.28	1075.38	1071.84	1068	1589.2	1610.5	1625.9	1635.7

O=C([O-])CC(O)(CC(=O)[O-])C(=O)[O-].[NH4+].[NH4+].[NH4+] [ammonium 2-hydroxypropane-1,2,3-tricarboxylate] + O
Conditions	mass density, 288.15 K [kg/m3]	mass density, 298.15 K [kg/m3]	mass density, 308.15 K [kg/m3]	mass density, 318.15 K [kg/m3]	speed of sound, 288.15 K [m/s]	speed of sound, 298.15 K [m/s]	speed of sound, 308.15 K [m/s]	speed of sound, 318.15 K [m/s]
m1 = 0.2	1021.37	1019	1015.71	1011.75	1503.1	1532	1553.5	1569
m1 = 0.4	1043.45	1040.15	1037.34	1033.31	1540.4	1567.3	1587.8	1602.3
m1 = 0.6	1063.76	1060.41	1057.21	1052.93	1578.7	1603.6	1621.9	1635.4

OC[C@H]1O[C@@](CO)(O[C@H]2O[C@H](CO)[C@@H](O)[C@H](O)[C@H]2O)[C@@H](O)[C@@H]1O [D-sucrose] + O
Conditions	mass density, 288.15 K [kg/m3]	mass density, 298.15 K [kg/m3]	mass density, 308.15 K [kg/m3]	mass density, 318.15 K [kg/m3]	speed of sound, 288.15 K [m/s]	speed of sound, 298.15 K [m/s]	speed of sound, 308.15 K [m/s]	speed of sound, 318.15 K [m/s]
m1 = 0.1002	1012.01	1009.81	1006.68	1002.77	1476.3	1506	1528.2	1544
m1 = 0.2007	1024.37	1022.04	1018.8	1014.82	1486.2	1515	1536.5	1552.6
m1 = 0.3011	1036.19	1033.73	1030.39	1026.34	1496	1524	1544.7	1560.1
m1 = 0.4034	1047.72	1045.13	1041.69	1037.58	1506	1533.2	1553.1	1567.7
m1 = 0.4996	1058.12	1055.43	1051.89	1047.73	1515.3	1541.7	1561	1576
m1 = 0.6018	1068.73	1065.92	1062.29	1058.07	1525.2	1550.6	1569.3	1584.2
m1 = 0.7022	1078.71	1075.81	1072.09	1067.82	1534.9	1559.3	1577.2	1592
m1 = 0.7978	1087.87	1084.86	1081.07	1076.72	1543.9	1567.4	1584.8	1599.6
m1 = 0.8955	1096.86	1093.77	1089.9	1085.49	1552.9	1575.6	1592.3	1606.7
m1 = 0.9969	1105.83	1102.65	1098.71	1094.23	1562.2	1583.8	1600.1	1614.4
